Reference: PubChem BioAssay AID248 (DTP/NCI, 2004)
Values joined by “and” are separate entries in the source; they are usually repeats but may differ in a detail not shown here. Equal values may be shown once. Toxic doses and inconclusive results are not listed.

Tested on: L1210 leukemia ip in BDF1 mice, survival T/C
Assay: NCI In Vivo Anticancer Drug Screen. Data for tumor model L1210 Leukemia (intraperitoneal) in B6D2F1 (BDF1) mice
Settings: endpoint: mean survival time, higher = longer survival
Outline: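 In this screen, tumor-bearing mice given compound are compared to those given vehicle, and their survival values are reported as a treated-to-control quotient.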

[1] = dose: 25.0 mg/kg/injection, schedule: Q01DX009 (ip), vehicle: saline
[2] = dose: 50.0 mg/kg/injection, schedule: Q01DX009 (ip), vehicle: saline
[3] = dose: 100.0 mg/kg/injection, schedule: Q01DX009 (ip), vehicle: saline
[4] = dose: 100.0 mg/kg/injection, schedule: Q04DX003 (ip), vehicle: saline
[5] = dose: 200.0 mg/kg/injection, schedule: Q04DX003 (ip), vehicle: saline
[6] = dose: 100.0 mg/kg/injection, schedule: Q04DX002 (ip), vehicle: saline
[7] = dose: 200.0 mg/kg/injection, schedule: Q04DX002 (ip), vehicle: saline
[8] = dose: 100.0 mg/kg/injection, schedule: Q01DX001 (ip), vehicle: carboxymethylcellulose (CMC)
[9] = dose: 200.0 mg/kg/injection, schedule: Q01DX001 (ip), vehicle: carboxymethylcellulose (CMC)
[10] = dose: 400.0 mg/kg/injection, schedule: Q01DX001 (ip), vehicle: carboxymethylcellulose (CMC)
[11] = dose: 100.0 mg/kg/injection, schedule: Q04DX003 (ip), vehicle: other
[12] = dose: 200.0 mg/kg/injection, schedule: Q04DX003 (ip), vehicle: other
[13] = dose: 400.0 mg/kg/injection, schedule: Q04DX003 (ip), vehicle: other
[14] = dose: 100.0 mg/kg/injection, schedule: Q04DX002 (ip), vehicle: saline with Tween-80
[15] = dose: 200.0 mg/kg/injection, schedule: Q04DX002 (ip), vehicle: saline with Tween-80
[16] = dose: 400.0 mg/kg/injection, schedule: Q04DX002 (ip), vehicle: saline with Tween-80
[17] = dose: 200.0 mg/kg/injection, schedule: Q01DX009 (ip), vehicle: saline
[18] = dose: 400.0 mg/kg/injection, schedule: Q04DX003 (ip), vehicle: saline
[19] = dose: 100.0 mg/kg/injection, schedule: Q04DX002 (ip), vehicle: Klucel (hydroxypropylcellulose) (HPC)
[20] = dose: 200.0 mg/kg/injection, schedule: Q04DX002 (ip), vehicle: Klucel (hydroxypropylcellulose) (HPC)
[21] = dose: 400.0 mg/kg/injection, schedule: Q04DX002 (ip), vehicle: Klucel (hydroxypropylcellulose) (HPC)
[22] = dose: 100.0 mg/kg/injection, schedule: Q01DX009 (ip), vehicle: saline with Tween-80
[23] = dose: 100.0 mg/kg/injection, schedule: Q04DX003 (ip), vehicle: saline with Tween-80
[24] = dose: 200.0 mg/kg/injection, schedule: Q01DX009 (ip), vehicle: saline with Tween-80
[25] = dose: 200.0 mg/kg/injection, schedule: Q04DX003 (ip), vehicle: saline with Tween-80
[26] = dose: 400.0 mg/kg/injection, schedule: Q01DX009 (ip), vehicle: saline with Tween-80
[27] = dose: 400.0 mg/kg/injection, schedule: Q04DX003 (ip), vehicle: saline with Tween-80
[28] = dose: 100.0 mg/kg/injection, schedule: Q01DX001 (ip), vehicle: saline
[29] = dose: 200.0 mg/kg/injection, schedule: Q01DX001 (ip), vehicle: saline
[30] = dose: 400.0 mg/kg/injection, schedule: Q01DX001 (ip), vehicle: saline
[31] = dose: 100.0 mg/kg/injection, schedule: Q04DX003 (ip), vehicle: Klucel (hydroxypropylcellulose) (HPC)
[32] = dose: 200.0 mg/kg/injection, schedule: Q04DX003 (ip), vehicle: Klucel (hydroxypropylcellulose) (HPC)
[33] = dose: 400.0 mg/kg/injection, schedule: Q04DX003 (ip), vehicle: Klucel (hydroxypropylcellulose) (HPC)

c1cn2cncc2cn1
T/C [1]: 90 % of control | T/C [2]: 103 % of control | T/C [3]: 88 % of control | T/C [4]: 103 % of control | T/C [5]: 94 % of control

CCC(C=NCCBr)(CCC(=O)OC)CCC(=O)OC
T/C [6]: 102 % of control | T/C [7]: 102 % of control | T/C (dose: 400.0 mg/kg/injection, schedule: Q04DX002 (ip), vehicle: saline): 112 % of control

COc1ccccc1/C=C\C=O
T/C [8]: 103 % of control | T/C [9]: 100 % of control | T/C [10]: 97 % of control

C=CSCCCCCCCC
T/C [11]: 103 % of control | T/C [12]: 97 % of control | T/C [13]: 97 % of control

COC1OC(C[N+](=O)[O-])C(OC(C)=O)C(OC(C)=O)C1OC(C)=O (stereo not given)
T/C [14]: 102 % of control | T/C [15]: 109 % of control | T/C [16]: 95 % of control

CN(C)C(=O)Nc1ccc(Cl)cc1
T/C [3]: 91 % of control | T/C [4]: 93 % of control | T/C [17]: 100 % of control | T/C [5]: 98 % of control | T/C [18]: 101 % of control

COc1cc2c(cc1OC)CC[N+](C)=C2
T/C (dose: 12.5 mg/kg/injection, schedule: Q01DX009 (ip), vehicle: saline): 92 % of control | T/C [1]: 95 % of control | T/C (dose: 25.0 mg/kg/injection, schedule: Q04DX003 (ip), vehicle: saline): 108 % of control | T/C [2]: 93 % of control | T/C (dose: 50.0 mg/kg/injection, schedule: Q04DX003 (ip), vehicle: saline): 100 % of control | T/C [3]: 96 % of control | T/C [4]: 103 % of control and 106 % of control

Cc1nccn1-c1ccc(Cl)cc1N=Cc1ccc(N(CCCl)CCCl)cc1Cl
T/C [19]: 95 % of control | T/C [20]: 95 % of control | T/C [21]: 106 % of control

CC(=O)Oc1cccc2c1C(=O)c1ccccc1C2=O
T/C [3]: 103 % of control | T/C [4]: 103 % of control | T/C [17]: 103 % of control | T/C [5]: 97 % of control | T/C (dose: 400.0 mg/kg/injection, schedule: Q01DX009 (ip), vehicle: saline): 104 % of control | T/C [18]: 103 % of control

CCOC(=O)c1cc(N)c(N2CCCC2)cc1Cl
T/C [22]: 109 % of control | T/C [23]: 93 % of control | T/C [24]: 98 % of control | T/C [25]: 93 % of control | T/C [26]: 95 % of control | T/C [27]: 93 % of control

CC(=O)OCC1OC(OC2CCCc3c(O)c4c(c(O)c32)C(=O)c2ccccc2C4=O)C(OC(C)=O)C(OC(C)=O)C1OC(C)=O (stereo not given)
T/C (dose: 40.0 mg/kg/injection, schedule: Q01DX001 (ip), vehicle: saline): 86 % of control | T/C (dose: 80.0 mg/kg/injection, schedule: Q01DX001 (ip), vehicle: saline): 92 % of control

CCCCC(=O)N1CCC(C)CC1
T/C [6]: 98 % of control | T/C [7]: 91 % of control

O=C(O)CCC(=O)NNC(=O)Cc1c[nH]c2ccccc12
T/C (dose: 100.0 mg/kg/injection, schedule: Q01DX001 (ip), vehicle: other): 106 % of control | T/C [11]: 95 % of control | T/C (dose: 200.0 mg/kg/injection, schedule: Q01DX001 (ip), vehicle: other): 106 % of control | T/C [12]: 94 % of control | T/C (dose: 400.0 mg/kg/injection, schedule: Q01DX001 (ip), vehicle: other): 97 % of control | T/C [13]: 94 % of control

c1cc2c(cc1NC1=NCCO1)CCC2
T/C (dose: 6.25 mg/kg/injection, schedule: Q01DX009 (ip), vehicle: saline with Tween-80): 107 % of control | T/C (dose: 12.5 mg/kg/injection, schedule: Q01DX009 (ip), vehicle: saline with Tween-80): 95 % of control | T/C (dose: 25.0 mg/kg/injection, schedule: Q01DX009 (ip), vehicle: saline with Tween-80): 114 % of control

O=C(c1ccccc1)C(Br)C(C(=O)c1ccccc1)c1ccccc1 (stereo not given)
T/C (dose: 50.0 mg/kg/injection, schedule: Q01DX009 (ip), vehicle: saline with Tween-80): 94 % of control | T/C [22]: 90 % of control | T/C [24]: 86 % of control

ClCCN(CC#CCCCC#CCN(CCCl)CCCl)CCCl
T/C [28]: 168 % of control

C=C(C)c1ccc(C)c(C)c1
T/C (dose: 25.0 mg/kg/injection, schedule: Q04DX003 (ip), vehicle: saline with Tween-80): 100 % of control | T/C (dose: 50.0 mg/kg/injection, schedule: Q04DX003 (ip), vehicle: saline with Tween-80): 106 % of control | T/C [23]: 94 % of control | T/C [25]: 95 % of control | T/C [27]: 90 % of control

CN(C)c1nc2ccccc2o1
T/C [8]: 94 % of control | T/C [9]: 102 % of control | T/C [10]: 105 % of control

CC(=O)Oc1ccc(CCN(C)C2CC3CCC2(C)C3(C)C)cc1OC(C)=O (stereo not given)
T/C [28]: 110 % of control | T/C [29]: 93 % of control | T/C [30]: 100 % of control

CC(C)(O)CC(O)(C(F)(F)F)C(F)(F)F
T/C (dose: 6.0 mg/kg/injection, schedule: Q01DX009 (ip), vehicle: other): 94 % of control | T/C (dose: 12.0 mg/kg/injection, schedule: Q01DX009 (ip), vehicle: other): 100 % of control | T/C (dose: 25.0 mg/kg/injection, schedule: Q01DX009 (ip), vehicle: other): 105 % of control and 106 % of control and 86 % of control | T/C (dose: 50.0 mg/kg/injection, schedule: Q01DX009 (ip), vehicle: other): 97 % of control | T/C (dose: 100.0 mg/kg/injection, schedule: Q01DX009 (ip), vehicle: other): 98 % of control

CC(=O)Nc1ccc(/C=C/c2ccc([N+](=O)[O-])cc2)cc1
T/C (dose: 100.0 mg/kg/injection, schedule: Q01DX009 (ip), vehicle: Klucel (hydroxypropylcellulose) (HPC)): 100 % of control | T/C [19]: 96 % of control | T/C [31]: 100 % of control | T/C (dose: 200.0 mg/kg/injection, schedule: Q01DX009 (ip), vehicle: Klucel (hydroxypropylcellulose) (HPC)): 95 % of control | T/C [20]: 93 % of control | T/C [32]: 98 % of control | T/C (dose: 400.0 mg/kg/injection, schedule: Q01DX009 (ip), vehicle: Klucel (hydroxypropylcellulose) (HPC)): 92 % of control | T/C [21]: 104 % of control | T/C [33]: 107 % of control

O=C1C2CCCCC2C(=O)N1O (stereo not given)
T/C [28]: 94 % of control | T/C [4]: 102 % of control | T/C [29]: 92 % of control | T/C [5]: 96 % of control | T/C [30]: 94 % of control | T/C [18]: 103 % of control

CC(C)(COS(C)(=O)=O)COS(C)(=O)=O
T/C (dose: 50.0 mg/kg/injection, schedule: Q01DX001 (ip), vehicle: Klucel (hydroxypropylcellulose) (HPC)): 95 % of control | T/C (dose: 100.0 mg/kg/injection, schedule: Q01DX001 (ip), vehicle: Klucel (hydroxypropylcellulose) (HPC)): 93 % of control | T/C (dose: 200.0 mg/kg/injection, schedule: Q01DX001 (ip), vehicle: Klucel (hydroxypropylcellulose) (HPC)): 93 % of control | T/C (dose: 400.0 mg/kg/injection, schedule: Q01DX001 (ip), vehicle: Klucel (hydroxypropylcellulose) (HPC)): 101 % of control

O=C(/C=C\c1cccc2ccccc12)c1ccc2ccccc2c1
T/C [22]: 100 % of control | T/C [14]: 88 % of control | T/C [24]: 90 % of control | T/C [15]: 88 % of control | T/C [26]: 93 % of control | T/C [16]: 88 % of control

COC(=O)c1cc(SC)nc(SC)n1
T/C [31]: 90 % of control | T/C [32]: 111 % of control | T/C [33]: 101 % of control
